The values that follow are results of earlier work, collected in patent publication US12029226B2, “Concentrate for preparing a drinkable solution (II)” (Alzchem Trostberg GmbH, priority 2019, dated 2024).

The conditions of this data set: literature value.

On to `CC(O)C(=O)O` (centres unmarked) [lactic acid], for which the pKs value is on record as 3.90+/−0.11. For the compound `O=CO` [formic acid], the pKs value is recorded as 3.77.
